# Laboratory results from patent US20240150396A1 (The Texas A&M University System, priority 2021, published 2024).
# pEC50: −log10 of the molar value.
# Test system: trypanosomes (T. b. brucei, T. cruzi)
# Assay: Anti-trypanosomal activity, culture not stated
# Type: cell-based
# Conditions: culture (T. b. brucei PCF/BSF or T. cruzi-infected cardiomyoblasts) not stated
structure (smiles),measurement,value
CN1CCN(C(=O)NC(Cc2ccccc2)C(=O)NC2Cc3ccccc3OC2O)CC1 (stereo not shown) [Compound 36],pEC50,4.54 to 6.30
